The source of these data is US20230312587A1, “PTERIDINONE COMPOUNDS AND USES THEREOF” (Vertex Pharmaceutical Incorporated, priority 2018, published 2023).

Read-outs that look alike come from different tables or passages of the source.

In assay [1] the target is HEK293 membranes over-expressing WFS-1 (Homo sapiens (Human), UniProt O76024). Briefly: Radioligand displacement assay (tritiated Compound 136 probe). Format: binding. The following applies: displacement of tritiated Compound 136. The gist of the method:
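WFS-1-overexpressing HEK293 membranes were preincubated 10 min with compound, then tritiated probe was added for 90 min at room temperature. Bound probe was collected by filtration on PEI-pretreated GF/B filters, washed and scintillation-counted. IC50 came from a 3-parameter fit of bound probe vs compound concentration.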
Background: Loss of bound radioactivity is the signal in a displacement assay; it reports binding, not function.

The test system of the next assay is HepG2 parental. Nature of the assay: In vitro cell viability (CellTiter-Glo), HepG2 parental. It is filed as cell-based. As to conditions: 96 hours, read-out: HepG2 viability. The method, then: HEK293 cells containing empty pCLPCx vector (HEK293 empty), HEK293 cells stably over-expression WFS1 (HEK293 WFS1), HepG2, and HepG2 cells where WFS1 was depleted via CRISPR/Cas9 (HepG2 WFS1 KO) cells were plated into 96-well black plates (Corning, product #3904) in 100 microliters of complete DMEM cell culture media [DMEM (Life Technologies, product #11960-051) media supplemented with 10% FBS (Hyclone, catalog #SH30071.03), antimycotic/antibiotic (Life Technologies, product #15240-062), and Glutamax (Life Technologies, product #35050-061)] at 1,000 (HEK293) or 5,000 (HepG2) cells per well. Cells were allowed to attach and grow overnight, after which compounds are added at various concentrations. Cell viability was assessed 96 hrs after compound addition with CellTiter-Glo reagent (Promega, catalog #G7570) according to manufacturer's protocol and measurement on a Pherastar luminescence plate reader (BMG Labtech).
To determine the effect of WFS1 depletion on compound mediated inhibition of cell viability, parental HepG2 cells and HepG2 cells where WFS1 was deleted by CRISPR/Cas9 were exposed to increasing concentrations of either Compound 136 or Compound 253 for 96 hours after which time viability was determined using Cell Titer Glo reagent (Promega). […] The IC50s for the viability of both the HepG2 parental and WFS1 knockout cells are summarized in Table 47: A<0.5 μM; 0.5 μM≤<2.0 μM; 2.0 μM≤C<10.0 μM; D≥[…].

The test system of assay [2] is β-catenin-TCF-mediated reporter transcription activity in Colo 205 cells. Nature of the assay: Colo 205 reporter assay (TCF/LEF luciferase). It is filed as cell-based. As to conditions: five hours after addition of compound. The gist of the method:
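Luciferase signal from a TCF/LEF-driven reporter, stably integrated in Colo 205 colon cancer cells, was measured 5 h after compound addition.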

Where [3] appears, read: Homo sapiens, COLO 205, 5 h, Colo 205 cells with stably transfected TCF/LEF luciferase reporter, read-out: TCF reporter Colo205.
The mark [4] stands for this setting: Homo sapiens, COLO 205, 5 h, Colo 205 TCF/LEF luciferase reporter, read-out: TCF reporter Colo205 IC50.
[5] abbreviates: Colo 205 TCF/LEF luciferase reporter, read-out: TCF reporter Colo205 IC50.

Chain of HEK293 membranes over-expressing WFS-1 (O76024 whole entry): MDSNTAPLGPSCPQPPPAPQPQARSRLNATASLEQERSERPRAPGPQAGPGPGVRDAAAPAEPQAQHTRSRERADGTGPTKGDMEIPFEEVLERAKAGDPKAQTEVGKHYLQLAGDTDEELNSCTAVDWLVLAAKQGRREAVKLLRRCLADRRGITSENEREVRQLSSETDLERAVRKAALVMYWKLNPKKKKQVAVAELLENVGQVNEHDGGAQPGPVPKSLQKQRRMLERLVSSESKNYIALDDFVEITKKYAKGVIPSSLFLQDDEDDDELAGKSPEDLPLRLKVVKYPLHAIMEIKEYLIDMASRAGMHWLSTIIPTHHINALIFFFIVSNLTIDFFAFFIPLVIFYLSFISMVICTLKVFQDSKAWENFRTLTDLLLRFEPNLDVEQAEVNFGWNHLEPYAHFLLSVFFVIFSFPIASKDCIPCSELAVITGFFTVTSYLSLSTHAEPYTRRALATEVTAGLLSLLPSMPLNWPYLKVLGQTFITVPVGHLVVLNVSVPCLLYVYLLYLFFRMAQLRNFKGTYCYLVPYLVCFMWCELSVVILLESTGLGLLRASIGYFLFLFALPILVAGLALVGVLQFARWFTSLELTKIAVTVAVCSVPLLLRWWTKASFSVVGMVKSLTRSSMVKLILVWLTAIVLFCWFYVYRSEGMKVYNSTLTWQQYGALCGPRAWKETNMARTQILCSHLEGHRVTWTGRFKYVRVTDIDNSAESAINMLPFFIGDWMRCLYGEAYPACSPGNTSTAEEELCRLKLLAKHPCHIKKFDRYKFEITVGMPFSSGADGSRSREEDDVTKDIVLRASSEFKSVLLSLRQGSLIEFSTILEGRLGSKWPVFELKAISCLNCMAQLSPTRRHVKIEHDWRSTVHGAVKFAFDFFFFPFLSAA

On to `CC(=O)N(Cc1cnn(Cc2ccc(C(F)(F)F)nc2)c1)c1nc(C)c2c(n1)N(C)[C@@H](C)C(=O)N2` [Compound 405, (7S)-N-((1-((6-(trifluoromethyl)pyridin-3-yl)methyl)-1H-pyrazol-4-yl)methyl)-N-(4,7,8-trimethyl-6-oxo-5,6,7,8-tetrahydropteridin-2-yl)acetamide], for which the IC50 is no less than 3000 nM in assay [1], no less than 10000 nM with HepG2 parental (Homo sapiens) and no less than 5000 nM in assay [2] (setting [3]).
On the same counts, the results for `Cc1nc(NCc2cnn(Cc3ccc(Cl)nc3)c2)nc2c1NC(=O)[C@H](C(C)C)N2C` [Compound 409, (7S)-2-(((1-((6-chloropyridin-3-yl)methyl)-1H-pyrazol-4-yl)methyl)amino)-7-isopropyl-4,8-dimethyl-7,8-dihydropteridin-6(5H)-one] are less than 60 nM, less than 500 nM and less than 300 nM.
Turning to `Cc1nc(NCc2cn(Cc3ccc(C(F)(F)F)nc3)nc2Br)nc2c1NC(=O)[C@H](C)N2C` [Compound 412, (S)-2-(((3-bromo-1-((6-(trifluoromethyl)pyridin-3-yl)methyl)-1H-pyrazol-4-yl)methyl)amino)-4,7,8-trimethyl-7,8-dihydropteridin-6(5H)-one], the values for the IC50 (in assay [1]; in the assay on HepG2 parental (Homo sapiens); in assay [2] (setting [4])) were less than 60 nM, 2000 to 10000 nM and less than 300 nM, respectively.
On to `Cc1nc(NCc2cnn(Cc3cncc(F)c3)c2)nc2c1NC(=O)[C@H](C(C)C)N2C` [Compound 415, (7S)-2-(((1-((5-fluoropyridin-3-yl)methyl)-1H-pyrazol-4-yl)methyl)amino)-7-isopropyl-4,8-dimethyl-7,8-dihydropteridin-6(5H)-one], for which the values for the IC50 (in assay [1]; in the assay on HepG2 parental (Homo sapiens); in assay [2] (setting [4])) were less than 60 nM, 500 to 2000 nM and less than 300 nM, respectively.
The corresponding values for `Cc1nc(NCc2cnn(Cc3ccc(C(F)(F)F)nc3C(C)(C)O)c2)nc2c1NC(=O)[C@H](C)N2C` [Compound 416, (7S)-2-(((1-((2-(2-hydroxypropan-2-yl)-6-(trifluoromethyl)pyridin-3-yl)methyl)-1H-pyrazol-4-yl)methyl)amino)-4,7,8-trimethyl-7,8-dihydropteridin-6(5H)-one] are less than 60 nM, less than 500 nM and less than 300 nM.
The corresponding values for `Cc1nc(NCc2cnn(Cc3ccc(C(F)(F)F)nc3Cl)c2)nc2c1NC(=O)[C@H](C)N2C` [Compound 418, (7S)-2-(((1-((2-chloro-6-(trifluoromethyl)pyridin-3-yl)methyl)-1H-pyrazol-4-yl)methyl)amino)-4,7,8-trimethyl-7,8-dihydropteridin-6(5H)-one] are less than 60 nM, less than 500 nM and less than 300 nM.
On the same counts, the results for `Cc1nc(NCc2cnn(Cc3ccc(C(F)(F)F)nc3C(C)O)c2)nc2c1NC(=O)[C@H](C)N2C` (stereo partly drawn) [Compound 419, (7S)-2-(((1-((2-((S)-1-hydroxyethyl)-6-(trifluoromethyl)pyridin-3-yl)methyl)-1H-pyrazol-4-yl)methyl)amino)-4,7,8-trimethyl-7,8-dihydropteridin-6(5H)-one] are 60 to 600 nM, 2000 to 10000 nM and less than 300 nM.
Take `Cc1nc(NCc2cnn(Cc3ccc(F)nc3)c2)nc2c1NC(=O)[C@H](C1CC1)N2C` [Compound 421, (7S)-7-cyclopropyl-2-(((1-((6-fluoropyridin-3-yl)methyl)-1H-pyrazol-4-yl)methyl)amino)-4,8-dimethyl-7,8-dihydropteridin-6(511)-one]: the IC50 in assay [1] is 60 to 600 nM; with HepG2 parental, 500 to 2000 nM; in assay [2] (setting [5]) it was less than 300 nM.
Regarding `Cc1cc(F)ncc1Cn1cc(CNc2nc(C)c3c(n2)N(C)[C@@H](C(C)C)C(=O)N3)cn1` [Compound 423, (7S)-2-(((1-((6-fluoro-4-methylpyridin-3-yl)methyl)-1H-pyrazol-4-yl)methyl)amino)-7-isopropyl-4,8-dimethyl-7,8-dihydropteridin-6(5H)-one], the IC50 in assay [1] is 60 to 600 nM; in the assay on HepG2 parental (Homo sapiens) it was less than 500 nM; in assay [2] (setting [4]), less than 300 nM.
The corresponding values for `Cc1nc(NCc2cnn(Cc3cnc(Cl)c(F)c3)c2)nc2c1NC(=O)[C@H](C(C)C)N2C` [Compound 424, (7S)-2-(((1-((6-chloro-5-fluoropyridin-3-yl)methyl)-1H-pyrazol-4-yl)methyl)amino)-7-isopropyl-4,8-dimethyl-7,8-dihydropteridin-6(5H)-one] are less than 60 nM, less than 500 nM and less than 300 nM.
For `Cc1ncc(Cn2cc(CNc3nc(C)c4c(n3)N(C)[C@@H](C(C)C)C(=O)N4)cn2)cc1F` [Compound 425, (7S)-2-(((1-((5-fluoro-6-methylpyridin-3-yl)methyl)-1H-pyrazol-4-yl)methyl)amino)-7-isopropyl-4,8-dimethyl-7,8-dihydropteridin-6(5H)-one], the IC50 in assay [1] is 60 to 600 nM; in the assay with HepG2 parental (Homo sapiens) it was 500 to 2000 nM; in assay [2] (setting [4]), less than 300 nM.
The corresponding values for `CC[C@H]1C(=O)Nc2cnc(NCc3cnn(Cc4ccc(C(F)(F)F)nc4)c3)nc2N1C` [Compound 427, (7S)-7-ethyl-8-methyl-2-(((1-((6-(trifluoromethyl)pyridin-3-yl)methyl)-1H-pyrazol-4-yl)methyl)amino)-7,8-dihydropteridin-6(5H)-one] are less than 60 nM, no less than 10000 nM and 300 to 1000 nM.
On the same counts, the results for `Cc1nc(NCc2cn(Cc3ccc(C(F)(F)F)nc3)cn2)nc2c1NC(=O)[C@H](C)N2C` [Compound 428, (S)-4,7,8-trimethyl-2-(((1-((6-(trifluoromethyl)pyridin-3-yl)methyl)-1H-imidazol-4-yl)methyl)amino)-7,8-dihydropteridin-6(5H)-one] are no less than 3000 nM, no less than 10000 nM and no less than 5000 nM.
On to “(7S)-2-(((1-((6-fluoro-2-isopropylpyridin-3-yl)methyl)-1H-pyrazol-4-yl)methyl)(methyl)amino)-7-isopropyl-4,8-dimethyl-7,8-dihydropteridin-6(5H)-one [Compound 430]”, for which the values for the IC50 (in assay [1]; with HepG2 parental; in assay [2] (setting [5])) were less than 60 nM, less than 500 nM and less than 300 nM, respectively.
The corresponding values for “(7S)-4,7,8-trimethyl-2-((trans-3-(3,4-difluorophenoxy)cyclobutyl)amino)-7,8-dihydropteridin-6(5H)-one [Compound 251]” are 60 to 600 nM, no less than 10000 nM and 300 to 1000 nM.
